Laboratory results as given in PMC9282634, “High-Throughput Crystallography Reveals Boron-Containing Inhibitors of a Penicillin-Binding Protein with Di- and Tricovalent Binding Modes” (Journal of Medicinal Chemistry, 2021).
Like-named read-outs stand apart in the source and are kept apart here.

Assays:
PBP3 (PaPBP3) [1] = target: T1, PBP3 (PaPBP3) (Pseudomonas aeruginosa, UniProt G3XD46); assay: biochemical; design: BOCILLIN FL fluorescence anisotropy, residual PBP3 binding after 1 h pre-incubation with compound; settings: read-out: Residual Activity by BOCILLIN FL FA (%)
T1 construct: gene ftsI; residues 50–579
T1 sequence (G3XD46 50-579): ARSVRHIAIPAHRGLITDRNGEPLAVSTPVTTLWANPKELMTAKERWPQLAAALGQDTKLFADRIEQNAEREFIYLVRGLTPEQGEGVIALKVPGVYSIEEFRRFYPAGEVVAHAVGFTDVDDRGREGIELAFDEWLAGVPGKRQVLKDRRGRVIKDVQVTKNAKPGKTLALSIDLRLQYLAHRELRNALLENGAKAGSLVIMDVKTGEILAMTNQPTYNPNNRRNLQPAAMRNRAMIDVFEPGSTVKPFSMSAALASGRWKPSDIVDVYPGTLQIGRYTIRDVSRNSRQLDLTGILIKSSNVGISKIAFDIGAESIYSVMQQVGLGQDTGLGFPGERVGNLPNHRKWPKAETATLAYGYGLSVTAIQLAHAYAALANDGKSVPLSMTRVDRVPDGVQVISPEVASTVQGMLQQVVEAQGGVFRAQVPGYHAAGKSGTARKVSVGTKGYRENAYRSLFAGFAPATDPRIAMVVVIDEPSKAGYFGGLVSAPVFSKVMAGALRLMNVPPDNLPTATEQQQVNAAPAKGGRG
Procedure: Unless otherwise stated, assays were run in triplicate using a 60 nM purified protein (see above), 30 nM BOCILLIN FL in pH 7 100 mM sodium phosphate buffer, with 0.01% Triton to reduce promiscuous ligand binding[23] and reduce binding of the protein to the plate. Assays were run in triplicate in a volume of 50 μL, in black, flat-bottom, 384-well microplates (Grenier Bio-One, Austria) at 30 °C. The change in FA was measured using a ClarioStar plate reader (BMG Labtech) with polarized filters at excitation: 482–16, emission: F: 530–4, and calculated using MARS software v3.32 (BMG Labtech) using the equation [drawing 1] where Fpara is the fluorescence intensity parallel to the excitation plane and Fperp is fluorescence intensity perpendicular to the excitation plane. Residual activities were determined by pre-incubating the test compound (1024 μM) and protein for 1 h at 30 °C before the reaction was initiated by the addition of BOCILLIN FL. The change in FA after 30 min was compared to the uninhibited control to determine the residual activity. In order to calculate Ki, the compound (at 11 concentrations: 1–1024 μM) and BOCILLIN FL were mixed and the reaction was initiated by the addition of PBP. Also included in the model were progress curves of nine concentrations of PBP (40–110 nM). Inhibition plots with meropenem and ceftazidime were done to ensure the correct parameters for BOCILLIN FL binding were used. Progress curves were analyzed with KinTek, USA, as described;[52],[69] reported errors represent the standard error. The acylation of a PBP by BOCILLIN FL (Figure S1) can be described by a simple one-step model.[52] However, unlike the previous studies, we found it was necessary to include a term (k2) to account for the deacylation of BOCILLIN FL to release a hydrolyzed product (Figure S1). The fluorescence intensity was constant throughout the reaction. Inhibitor binding was modeled as a reversible reaction to form the enzyme–inhibitor complex (Figure S1). Ki was calculated as the ratio of the off-rate koff to the on-rate kon (Figure S1). Table 1 Residual Activities and Kis of Compounds Tested in the BOCILLIN FL Competition Assay for Binding to PaPBP3 and Residual Activities Measured in S2d Turnover Assays ^a a For both BOCILLIN FL FA and S2d assays, residual activities in the presence of a 1 mM inhibitor are a percentage of the activity of the untreated control. Errors are standard errors (n = 3) from independent measurements. b Residual activity measured at 100 μM due to solubility issues at 1 mM. Ki, calculated with 11 concentrations of each compound and determined using global fitting in Kintek Global Explorer.[52],[59]

PBP3 (PaPBP3) [2] = target: T1, PBP3 (PaPBP3); assay: biochemical; design: S2d thioester turnover with DTNB, absorbance 412 nm, residual activity after 1 h pre-incubation; settings: read-out: Residual Activity by S2d Turnover (%)
Procedure: Residual activities were measured by the ability of a potential inhibitor to hinder hydrolysis of the substrate analogue S2d (2-((benzoyl-D-alanyl)thio)acetic acid) turnover by PaPBP3 as described for other PBPs.[4],[24],[53],[54] Assays were conducted in 50 μL in a 384-well, clear-bottom, black-walled microplate (Greiner Bio-One). PaPBP3 (400 nM) was incubated with 2 mM of each compound for 1 h at 30 °C in 100 mM sodium phosphate, pH 7, supplemented with 0.01% (v/v) triton. A solution of 5,5′-dithiobis-(2-nitrobenzoic acid) and S2d diluted in the same buffer (to give a final concentration in the assay of 1 mM for both reagents) was added to each well to initiate the reaction. The final concentration of protein was 200 nM and the final inhibitor concentration was 1 mM. A ClarioStar plate reader (BMG Labtech) was used to follow the reaction by observing the change in absorbance at 412 nm at 30 °C. […] The initial rate of S2d turnover was calculated using GraphPad prism (Prism 8 for macOS, GraphPad Software LLC) and the standard error calculated from three independent technical replicates. The rate of non-enzymatic S2d hydrolysis was subtracted from each rate to find the corrected rate. For each compound, the ratio of the corrected rate to the untreated control corrected rate was expressed as a percentage to give the residual activity. [drawing 2] Table 1 Residual Activities and Kis of Compounds Tested in the BOCILLIN FL Competition Assay for Binding to PaPBP3 and Residual Activities Measured in S2d Turnover Assays ^a a For both BOCILLIN FL FA and S2d assays, residual activities in the presence of a 1 mM inhibitor are a percentage of the activity of the untreated control. Errors are standard errors (n = 3) from independent measurements. b Residual activity measured at 100 μM due to solubility issues at 1 mM. Ki, calculated with 11 concentrations of each compound and determined using global fitting in Kintek Global Explorer.[52],[59]

PBP3 (PaPBP3) [3] = target: T1, PBP3 (PaPBP3); assay: crystal structure; BOCILLIN FL fluorescence anisotropy competition (Ki); assay type: biochemical
PBP3 (PaPBP3) [4] = target: T1, PBP3 (PaPBP3); assay: biochemical; design: BOCILLIN FL competition fluorescence anisotropy, progress curves globally fitted in KinTek to reversible one-step model; settings: BOCILLIN FL competition
Procedure: Unless otherwise stated, assays were run in triplicate using a 60 nM purified protein (see above), 30 nM BOCILLIN FL in pH 7 100 mM sodium phosphate buffer, with 0.01% Triton to reduce promiscuous ligand binding[23] and reduce binding of the protein to the plate. Assays were run in triplicate in a volume of 50 μL, in black, flat-bottom, 384-well microplates (Grenier Bio-One, Austria) at 30 °C. The change in FA was measured using a ClarioStar plate reader (BMG Labtech) with polarized filters at excitation: 482–16, emission: F: 530–4, and calculated using MARS software v3.32 (BMG Labtech) using the equation [drawing 1] where Fpara is the fluorescence intensity parallel to the excitation plane and Fperp is fluorescence intensity perpendicular to the excitation plane. Residual activities were determined by pre-incubating the test compound (1024 μM) and protein for 1 h at 30 °C before the reaction was initiated by the addition of BOCILLIN FL. […] Progress curves were analyzed with KinTek, USA, as described;[52],[69] reported errors represent the standard error. […] The fluorescence intensity was constant throughout the reaction. […] Ki was calculated as the ratio of the off-rate koff to the on-rate kon (Figure S1). 1–15 were screened for PaPBP3 inhibition at 1 mM using an established fluorescence anisotropy (FA) assay.[52] […]

Row | SMILES | remaining activity at 1000 µM (PBP3 (PaPBP3) [1]) | remaining activity at 1000 µM (PBP3 (PaPBP3) [2]) | Ki (PBP3 (PaPBP3) [3]) | Ki (PBP3 (PaPBP3) [4])
1 | O=C(O)c1ccc2c(c1)B(O)OC2 [compound 3] | 75 ± 1% | 57.8 ± 0.6% |  | 
2 | CNC(=O)CNC(=O)c1ccc2c(c1)B(O)OC2 [compound 5] | > 90% | > 90% |  | 
3 | NC(=O)[C@@H](Cc1ccccc1)NC(=O)c1ccc2c(c1)B(O)OC2 [compound 6] | > 90% | > 90% |  | 
4 | COC(=O)[C@H](NC(=O)c1ccc2c(c1)B(O)OC2)c1ccccc1 [compound 7] | > 90% | > 90% |  | 
5 | O=C1CN(C(=O)[C@@H](Cc2ccccc2)NC(=O)c2ccc3c(c2)B(O)OC3)CCN1 [compound 11] | 84 ± 1% | 80.9 ± 1.3% |  | 
6 | NC(=O)[C@H](NC(=O)c1ccc2c(c1)B(O)OC2CC(=O)O)c1ccccc1 (some centres unmarked) [compound 12, 12] | 16 ± 6% | 19.6 ± 0.4% | 73.9 ± 0.8 µM | 
7 | CN1CCN(C(=O)CNC(=O)c2ccc3c(c2)B(O)OC3CC(=O)O)CC1=O (centres unmarked) [compound 13, 13] | 42 ± 6% | 47.5 ± 0.6% | 172 ± 3 µM | 
8 | O=C(O)CC1OB(O)c2ccc(OCc3ccccc3)cc21 (centres unmarked) [compound 15, 2-(5-(Benzyloxy)-1-hydroxy-1,3-dihydrobenzo[c][1,2]oxaborol-3-yl)acetic Acid] |  |  | 78.1 ± 0.9 µM | 
9 | O=C(O)C[C@@H]1CC[C@H](NC(=O)Cc2cccs2)B(O)O1 [vaborbactam] | 54 ± 5% | 75.8 ± 0.7% |  | 201 ± 2.3 µM
